Measured values published in PubChem BioAssay AID1963873 (Molecular Pharmacology Branch, DTP, NCI, 2024).

Tested on: 276233-004-R-J1-PDC KRAS spheroids with HUVEC/MSC, viability
Experiment: Anticancer human tumor 276233-004-R-J1-PDC patient-derived colon adenocarcinoma cell line growth inhibition [KRAS2]
Conditions: for viability, T/C: stronger effect = lower value
Excerpt: Multicellular complex tumor spheroid response to RAS pathway inhibitors in combination with a targeted agents in patient-derived cell lines with oncogenic KRAS variants from multiple cancer types
A high-throughput screen of multi-cell type tumor spheroids was designed to identify active combinations of targeted small molecules and KRAS pathway inhibitors. Complex spheroids include a stromal component modeled by human endothelial cells (HUVEC) and fibroblasts modeled by human mesenchymal stem cells (MSCs). The concentration ranges selected for each drug and investigational agent were based upon clinically achievable concentrations if the clinical Cmax of the agent was known.
Compounds. The drugs and investigational agents: BI-3406 (NSC825286), BAY-293 (NSC824723), batoprotafib (TNO155; NSC825523), sotorasib (AMG 510; NSC818433), MRTX1257 (NSC819558), elimusertib (BAY 1895344; NSC800525), molibresib (GSK525762; NSC774829), temuterkib (LY3214996; NSC803410), venetoclax (NSC766270), alisertib (NSC759677), olaparib (NSC753686), talazoparib (NSC767125), erdafitinib (NSC781556), ipatasertib (NSC767898), cabozantinib (NSC761068), nintedanib (NSC756659), abemaciclib (NSC768073), docetaxel (NSC628503), trametinib (NSC758246), and sapanisertib (NSC764658) were obtained from the National Cancer Institute (NCI) Developmental Therapeutics Program Chemical Repository. The FDA-approved anticancer drug set is available from the Developmental Therapeutics Program. […] The stock solutions were prepared in dimethyl sulfoxide (DMSO, Sigma-Aldrich, St. Louis, MO, cat. D2650) at 800-fold the tested concentration and stored at -70 degrees C prior to their use. All drugs and investigational agents were tested over a range starting from a high concentration at or near the clinical Cmax and decreasing in half-log increments. If the clinical Cmax for an agent had not been determined, the highest concentration tested was 10 microM.
Cell Culture. All cells were maintained in an incubator at 37 degrees C and 5% CO2 with 95% humidity. The PDC lines were cultured according to standard operating procedures established by the NCI PDMR (https://pdmr.cancer.gov/sops/default.htm). Briefly, all PDCs were thawed and cultured in Matrigel-coated flasks prepared with a working solution of 1X Ham's F-12 nutrient mix, without supplementation (Invitrogen, Waltham, MA, cat. 11765054), 100 U/mL penicillin-streptomycin (Invitrogen, cat. 15140122), and 2.5% Matrigel (Corning Inc., Corning, NY, cat. 354248) for the first three passages. All PDCs were cultured in complete DMEM/F-12 media containing advanced DMEM/F-12 (Invitrogen, cat. 12634028), 4.9% defined fetal bovine serum, heat inactivated (HyClone Laboratories Inc., Logan, UT, cat. SH30070.03HI), 389 ng/mL hydrocortisone (Sigma-Aldrich, cat. H4001), 9.7 ng/mL human EGF recombinant protein (Invitrogen, cat. PHG0313), 23.4 microg/mL adenine (Sigma-Aldrich, cat. A2786), 97.3 U/mL penicillin-streptomycin (Invitrogen, cat. 15140122), 1.9 mM L-glutamine (Invitrogen, cat. 25030081), and 9.7 microM Y-27632 dihydrochloride (Tocris Bioscience, Bristol, United Kingdom, cat. 1254). The PDCs were cultured in complete DMEM/F12 media without 9.7 microM Y-27632 dihydrochloride for at least two passages prior to the screen. The established cell line HOP-62 was cultured in RPMI 1640 medium, HEPES (Invitrogen, cat. 22400105) with 10% defined fetal bovine serum (HyClone Laboratories Inc., cat. SH30070.03) and 2 mM L-glutamine (Invitrogen, cat. 25030081). The pooled donor HUVEC were cultured in endothelial cell growth medium 2 (PromoCell, Heidelberg, Germany, cat. C-22011) and the hMSC were cultured in mesenchymal stem cell growth medium 2 (PromoCell, cat. C-28009). For all experiments, HUVEC and hMSC were used at passages </=5, while the malignant cell lines were used at passages </=15. […]
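Also: cells exposed to agents for seven days before viability read.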
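For viability, T/C in this document: 100% = DMSO vehicle control wells and lower values mean fewer viable cells.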

COc1cc(Nc2ncc3c(n2)-c2ccc(Cl)cc2C(c2c(F)cccc2OC)=NC3)ccc1C(=O)O + C=CC(=O)N1CCN(c2nc(=O)n(-c3c(C)ccnc3C(C)C)c3nc(-c4c(O)cccc4F)c(F)cc23)C(C)C1
IC50 (curve of first compound, second compound 0.1 µM): > 10 µM
IC50 (curve of first compound, second compound 0.316 µM): > 10 µM
IC50 (curve of first compound, second compound 1 µM): > 10 µM
IC50 (curve of first compound, second compound 3.16 µM): > 10 µM
IC50 (curve of first compound, second compound 10 µM): > 10 µM
viability, T/C (second compound 0.1 µM, first compound 0.0316 µM): 132%
viability, T/C (second compound 0.1 µM, first compound 0.1 µM): 118%
viability, T/C (second compound 0.1 µM, first compound 0.316 µM): 117%
viability, T/C (second compound 0.1 µM, first compound 1 µM): 104%
viability, T/C (second compound 0.1 µM, first compound 3.16 µM): 116%
viability, T/C (second compound 0.1 µM, first compound 10 µM): 88.3%
viability, T/C (second compound 0.316 µM, first compound 0.0316 µM): 112%
viability, T/C (second compound 0.316 µM, first compound 0.1 µM): 110%
viability, T/C (second compound 0.316 µM, first compound 0.316 µM): 117%
viability, T/C (second compound 0.316 µM, first compound 1 µM): 111%
viability, T/C (second compound 0.316 µM, first compound 3.16 µM): 99%
viability, T/C (second compound 0.316 µM, first compound 10 µM): 97%
viability, T/C (second compound 1 µM, first compound 0.0316 µM): 102%
viability, T/C (second compound 1 µM, first compound 0.1 µM): 118%
viability, T/C (second compound 1 µM, first compound 0.316 µM): 108%
viability, T/C (second compound 1 µM, first compound 1 µM): 115%
viability, T/C (second compound 1 µM, first compound 3.16 µM): 110%
viability, T/C (second compound 1 µM, first compound 10 µM): 96.5%
viability, T/C (second compound 3.16 µM, first compound 0.0316 µM): 139%
viability, T/C (second compound 3.16 µM, first compound 0.1 µM): 125%
viability, T/C (second compound 3.16 µM, first compound 0.316 µM): 110%
viability, T/C (second compound 3.16 µM, first compound 1 µM): 105%
viability, T/C (second compound 3.16 µM, first compound 3.16 µM): 96.3%
viability, T/C (second compound 3.16 µM, first compound 10 µM): 89.1%
viability, T/C (second compound 10 µM, first compound 0.0316 µM): 88.3%
viability, T/C (second compound 10 µM, first compound 0.1 µM): 107%
viability, T/C (second compound 10 µM, first compound 0.316 µM): 87.4%
viability, T/C (second compound 10 µM, first compound 1 µM): 91.6%
viability, T/C (second compound 10 µM, first compound 3.16 µM): 79.3%
viability, T/C (second compound 10 µM, first compound 10 µM): 86.5%

Cn1nccc1Nc1nccc(-c2cc3c(s2)C(C)(C)N(CCN2CCOCC2)C3=O)n1
viability, T/C (compound 0.1 µM): 96.5% [middle of 5 runs]
viability, T/C (compound 0.316 µM): 86.1% [middle of 5 runs]
viability, T/C (compound 1 µM): 79.7% [middle of 5 runs]
viability, T/C (compound 3.16 µM): 54.2% [middle of 5 runs]
viability, T/C (compound 10 µM): 49.9% [middle of 5 runs]

CC1(C)CCC(CN2CCN(c3ccc(C(=O)NS(=O)(=O)c4ccc(NCC5CCOCC5)c([N+](=O)[O-])c4)c(Oc4cnc5[nH]ccc5c4)c3)CC2)=C(c2ccc(Cl)cc2)C1
viability, T/C (compound 0.0316 µM): 93.5% [middle of 5 runs]
viability, T/C (compound 0.1 µM): 88.8% [middle of 5 runs]
viability, T/C (compound 0.316 µM): 102% [middle of 5 runs]
viability, T/C (compound 1 µM): 93.4% [middle of 5 runs]
IC50 (curve of compound): > 10 µM
